Measured values published in patent US20080153792A1, “Drug Identification and Treatment Method” (priority 2006, published 2008).

Columns and labels:
[1] = test system: mice treated daily with dexamethasone; test: osteoprotegerin levels in dexamethasone treated mice; type: in vivo, mouse; settings: vehicle, dexamethasone 10 μg/day and compound at 4 mg/kg/day; p<0.05
Method: Osteoprotegerin levels in mice that were treated with vehicle and dexamethasone at 10 μg/day (positive control group) had 3.3 pMol/L osteoprotegerin, while animals treated with vehicle, dexamethasone and 17α-ethynyl-5-androstene-3β,7β,17β-triol at 4 mg/kg/day had 6.4 pMol/L osteoprotegerin (p<0.05).

[2] = test system: DBA/1Lac/J mice, collagen induced arthritis; test: collagen induced arthritis (CIA), Foxp3+ cells and clinical score; type: in vivo, mouse
Method: Increase of CD4^+CD25^+ T regulatory cells or their activity in vivo. The compound 17α-ethynylandrost-5-ene-3β,7β,17β-triol was administered to mice essentially as described in a previously described collagen induced arthritis animal model. H. Offner et al., Clin. Immunol., 110:181-190, 2006.
DBA/1Lac/J mice were used for the study. The mice were obtained from Jackson Laboratories (Bar Harbor, Harbor, […].) and housed in accordance with applicable institutional guidelines. Bovine type II collagen (bCll) was used to induce collagen induced arthritis (CIA) by immunizing 8-week-old mice with 200 μg of bCII emulsified 1:1 with CFA containing 200 μg Mycobacterium tuberculosis (100 μL; Difco, Detroit, Mich.). The antigen was injected intradermally at the base of the tail. The animals were monitored for 4-7 weeks to observe the onset and progression of the disease post-immunization. The arthritic severity was evaluated with a grading system for each paw according to the following scale: 0=no redness or swelling; 1=slight swelling in ankle or redness in foot; 2=progressed swelling and inflammation and redness from ankle to mid foot; 3=swelling and inflammation of entire foot; 4=swelling and inflammation of entire foot including toes.
After immunization, the mice were treated with the drug at 40 mg/kg/day in vehicle by oral gavage beginning at the start of observable clinical disease (beginning at about 26-27 days after immunization). The vehicle that was used for the protocol was 30% cyclodextrin-sulfobutylether in water. The cyclodextrin-sulfobutylether was obtained commercially (Captisol™ available at cyclexinc.com). The drug formulation was 20 mg drug/mL in the vehicle.

[3] = test system: estrogen receptor-s or estrogen receptor-s; test: interaction with estrogen receptors
androgen receptor = androgen receptor (Homo sapiens, UniProt P10275); test: interaction with androgen receptor
[4] = test system: DBA/1 mice, passive collagen-induced arthritis; test: passive collagen-induced arthritis (anti-type II collagen antibodies); type: in vivo, mouse; settings: 40 mg/kg/day oral gavage for 14 days
Description: The capacity of formula 1 compounds to affect the course of arthritis in a passive collagen induced arthritis model of arthritis was examined essentially as previously described (E. Simelyte et al., Arthritis & Rheumatism, 52(6):1876-1884, 2005; Z. Han et al. Arthritis & Rheumatism 46(3):818-823 2002; H. Miyahara et. Clin. Immunol. Immunopathol., 69(1):69-76 1993). In this protocol, passive collagen-induced arthritis was induced in DBA/1 mice by administering anti-type II collagen antibodies, which induced an immune response against joint tissue in the animals. […] The severity of arthritis was assessed using a semiquantitative clinical scoring system. Groups of 8 animals per group were treated with 17α-ethynylandrost-5-ene-3β,7β,17β-triol at 40 mg/kg/day for 14 days or vehicle for 14 days by oral gavage. The vehicle was 30% cyclodextrin-sulfobutylether in water and the drug solution was vehicle with drug at 20 mg/mL.
The animals were examined by measuring ankle thickness and arthritis score (4-point/paw) with a higher score indicating a more severe arthritis. The experiment was terminated after about 14 days, and histology and gene expression measurements were performed. […] A semi-quantitative scoring system was used to access synovial inflammation, extraarticular inflammation, erosion and proteogylcan loss. […]

[5] = test system: monocyte chemoattractant protein-1 (MCP-1); test: MCP-1 RNA in perigonadal fat tissue, quantitative RT/PCR; type: in vivo, mouse; settings: 20 mg/kg; normalized with respect to the vehicle control
Method: In another study, total RNA from perigonadal fat tissue from lean db/+ or diabetic db/db mice treated with 20 mg/kg of 17α-ethynylandrost-5-ene-3β,7β,17β-triol was isolated and processed for quantitative RT/PCR using primers specific for monocyte chemoattractant protein-1 (MCP-1) using an iCycler iQ multicolor real time-detection system (Bio-Rad). RNA expression levels were normalized with respect to the vehicle control. […] For this study, vehicle was also administered to a control group of age matched lean heterozygous db/+ mice (n=7).

[6] = test system: osteoblasts and osteocytes in murine vertebral bone; test: osteoblast and osteocyte apoptosis in ovariectomized mice (TUNEL); type: in vivo, mouse; settings: ovariectomized Swiss Webster mice
Description: The degree of apoptosis of osteoblasts and osteocytes in murine vertebral bone as a function of estrogen deficiency was examined. Swiss Webster mice (four months old) were ovariectomized. Twenty-eight days later, the animals were sacrificed, vertebrae were isolated, fixed and embedded, and then undecalcified in methacrylate.

11β-HSD1 = test: expression of 11β-HSD1 in osteoblasts of treated mice; type: in vivo, mouse; settings: administration to mice
[7] = test system: CD1 male mice, carrageenan-λ induced pleurisy; test: carrageenan-λ induced lung (pleural cavity) inflammation in mice; type: in vivo, mouse; settings: 1 mg and 0.1 mg by oral gavage
[8] = 40 mg/kg/day oral gavage from onset of clinical disease, n = 3

Chain of androgen receptor (P10275 whole entry, species assumed): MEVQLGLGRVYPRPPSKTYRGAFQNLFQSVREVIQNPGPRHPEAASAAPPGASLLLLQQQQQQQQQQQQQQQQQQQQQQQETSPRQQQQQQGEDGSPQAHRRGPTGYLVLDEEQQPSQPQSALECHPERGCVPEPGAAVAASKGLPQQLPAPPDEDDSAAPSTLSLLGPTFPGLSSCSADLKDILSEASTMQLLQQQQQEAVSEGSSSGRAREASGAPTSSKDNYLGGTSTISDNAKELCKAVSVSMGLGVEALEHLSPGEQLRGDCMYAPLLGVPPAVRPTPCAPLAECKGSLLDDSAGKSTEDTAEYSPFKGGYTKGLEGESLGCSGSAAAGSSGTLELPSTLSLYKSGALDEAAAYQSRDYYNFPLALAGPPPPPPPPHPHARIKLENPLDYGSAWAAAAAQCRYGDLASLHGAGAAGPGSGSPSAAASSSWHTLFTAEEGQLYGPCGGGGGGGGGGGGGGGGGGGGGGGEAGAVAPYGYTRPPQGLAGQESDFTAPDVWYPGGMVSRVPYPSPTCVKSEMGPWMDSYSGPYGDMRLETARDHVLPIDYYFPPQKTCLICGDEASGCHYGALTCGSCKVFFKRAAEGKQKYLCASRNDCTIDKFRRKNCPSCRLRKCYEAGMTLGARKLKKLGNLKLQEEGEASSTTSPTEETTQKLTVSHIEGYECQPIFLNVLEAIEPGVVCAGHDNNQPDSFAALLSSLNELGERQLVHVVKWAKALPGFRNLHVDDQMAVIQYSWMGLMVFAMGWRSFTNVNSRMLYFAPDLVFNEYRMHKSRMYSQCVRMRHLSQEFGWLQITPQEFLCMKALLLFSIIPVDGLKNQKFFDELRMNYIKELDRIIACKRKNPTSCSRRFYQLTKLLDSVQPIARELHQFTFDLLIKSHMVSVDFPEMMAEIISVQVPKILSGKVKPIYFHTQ

C#C[C@]1(O)CC[C@H]2[C@@H]3[C@@H](O)C=C4C[C@@H](O)CC[C@]4(C)[C@H]3CC[C@@]21C [17α-ethynylandrost-5-ene-3β,7β,17β-triol]
osteoprotegerin [1]: 6.4 pmol/L
CD4^+Foxp3^+ cells in whole splenocytes [2, 8]: 1.34% ± 0.05
Total Foxp3^+ cells in whole splenocytes [2, 8]: 2.39% ± 0.16
Foxp3+ CD4^+ cells by cell sorter analysis ([2]; 40 mg/kg/day, control animals 1.0%): 1.4%
maximum mean clinical score ([2]; at day 34, vehicle about 6.8-8 between days 34-49): about 5
mean clinical score ([2]; by day 49): about 3
interaction with estrogen receptor-s or estrogen receptor-s [3]: do not interact
interaction with androgen receptor (androgen receptor): do not interact
maximum clinical score ([4]; at day 7): 5.1
clinical score at day 14 ([4]; end of the protocol): 4.1
decrease of levels of MCP-1 [5]: about 50%
osteoblast and osteocyte apoptosis [6]: reduce apoptosis
decrease of expression of 11β-HSD1 in osteoblasts (11β-HSD1): about 50%
anti-inflammation activity versus vehicle controls [7]: statistically significant anti-inflammation activity
